# Experimental data as given in article PMC9037752, “A Novel Angiotensin I-Converting Enzyme Inhibitory Peptide Derived From Goat Milk Casein Hydrolysate Modulates Angiotensin II-Stimulated Effects on Vascular Smooth Muscle Cells” (Frontiers in Nutrition, 2022).
# Ends that are not written are not given here.
# T1: Angiotensin Converting Enzyme from rabbit lung (Oryctolagus cuniculus, UniProt P12822)
# T1 construct: Angiotensin Converting Enzyme from rabbit lung; purchased Sigma-Aldrich; host or cells: rabbit lung tissue
# T1 sequence (P12822 34-1310): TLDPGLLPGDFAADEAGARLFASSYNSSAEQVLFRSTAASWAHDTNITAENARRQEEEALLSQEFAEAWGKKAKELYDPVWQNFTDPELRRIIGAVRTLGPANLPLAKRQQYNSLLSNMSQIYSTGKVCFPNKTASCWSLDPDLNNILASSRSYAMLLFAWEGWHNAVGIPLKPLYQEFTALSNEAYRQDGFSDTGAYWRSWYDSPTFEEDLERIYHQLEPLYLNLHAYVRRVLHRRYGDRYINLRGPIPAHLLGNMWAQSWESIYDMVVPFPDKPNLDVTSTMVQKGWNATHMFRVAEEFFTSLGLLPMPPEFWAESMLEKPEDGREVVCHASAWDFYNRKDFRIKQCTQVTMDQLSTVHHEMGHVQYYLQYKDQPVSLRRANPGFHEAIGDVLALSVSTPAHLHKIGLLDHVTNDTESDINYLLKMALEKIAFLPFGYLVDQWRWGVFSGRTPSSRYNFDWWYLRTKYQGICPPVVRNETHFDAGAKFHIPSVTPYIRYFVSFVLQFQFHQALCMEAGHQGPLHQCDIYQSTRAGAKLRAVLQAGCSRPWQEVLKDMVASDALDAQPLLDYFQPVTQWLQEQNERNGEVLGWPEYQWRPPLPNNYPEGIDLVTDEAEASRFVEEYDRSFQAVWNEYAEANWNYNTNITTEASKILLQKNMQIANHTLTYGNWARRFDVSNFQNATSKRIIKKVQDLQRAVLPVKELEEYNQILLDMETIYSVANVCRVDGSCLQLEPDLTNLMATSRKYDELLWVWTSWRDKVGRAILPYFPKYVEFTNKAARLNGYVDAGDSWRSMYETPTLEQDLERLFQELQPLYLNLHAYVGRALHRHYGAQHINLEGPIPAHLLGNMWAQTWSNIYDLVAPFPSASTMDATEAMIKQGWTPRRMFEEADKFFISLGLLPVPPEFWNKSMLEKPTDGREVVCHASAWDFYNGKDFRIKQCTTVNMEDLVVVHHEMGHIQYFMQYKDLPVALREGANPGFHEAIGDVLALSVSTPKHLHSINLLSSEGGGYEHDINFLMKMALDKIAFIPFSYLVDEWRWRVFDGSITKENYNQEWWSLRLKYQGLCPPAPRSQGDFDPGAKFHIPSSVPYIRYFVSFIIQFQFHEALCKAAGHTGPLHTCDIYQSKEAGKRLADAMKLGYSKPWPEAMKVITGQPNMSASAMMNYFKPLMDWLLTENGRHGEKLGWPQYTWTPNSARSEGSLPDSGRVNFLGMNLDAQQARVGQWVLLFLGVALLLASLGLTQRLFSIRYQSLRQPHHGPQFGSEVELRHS
# T2: Angiotensin Converting Enzyme from rabbit lung (rabbit) (UniProt P12822)
# T2 sequence: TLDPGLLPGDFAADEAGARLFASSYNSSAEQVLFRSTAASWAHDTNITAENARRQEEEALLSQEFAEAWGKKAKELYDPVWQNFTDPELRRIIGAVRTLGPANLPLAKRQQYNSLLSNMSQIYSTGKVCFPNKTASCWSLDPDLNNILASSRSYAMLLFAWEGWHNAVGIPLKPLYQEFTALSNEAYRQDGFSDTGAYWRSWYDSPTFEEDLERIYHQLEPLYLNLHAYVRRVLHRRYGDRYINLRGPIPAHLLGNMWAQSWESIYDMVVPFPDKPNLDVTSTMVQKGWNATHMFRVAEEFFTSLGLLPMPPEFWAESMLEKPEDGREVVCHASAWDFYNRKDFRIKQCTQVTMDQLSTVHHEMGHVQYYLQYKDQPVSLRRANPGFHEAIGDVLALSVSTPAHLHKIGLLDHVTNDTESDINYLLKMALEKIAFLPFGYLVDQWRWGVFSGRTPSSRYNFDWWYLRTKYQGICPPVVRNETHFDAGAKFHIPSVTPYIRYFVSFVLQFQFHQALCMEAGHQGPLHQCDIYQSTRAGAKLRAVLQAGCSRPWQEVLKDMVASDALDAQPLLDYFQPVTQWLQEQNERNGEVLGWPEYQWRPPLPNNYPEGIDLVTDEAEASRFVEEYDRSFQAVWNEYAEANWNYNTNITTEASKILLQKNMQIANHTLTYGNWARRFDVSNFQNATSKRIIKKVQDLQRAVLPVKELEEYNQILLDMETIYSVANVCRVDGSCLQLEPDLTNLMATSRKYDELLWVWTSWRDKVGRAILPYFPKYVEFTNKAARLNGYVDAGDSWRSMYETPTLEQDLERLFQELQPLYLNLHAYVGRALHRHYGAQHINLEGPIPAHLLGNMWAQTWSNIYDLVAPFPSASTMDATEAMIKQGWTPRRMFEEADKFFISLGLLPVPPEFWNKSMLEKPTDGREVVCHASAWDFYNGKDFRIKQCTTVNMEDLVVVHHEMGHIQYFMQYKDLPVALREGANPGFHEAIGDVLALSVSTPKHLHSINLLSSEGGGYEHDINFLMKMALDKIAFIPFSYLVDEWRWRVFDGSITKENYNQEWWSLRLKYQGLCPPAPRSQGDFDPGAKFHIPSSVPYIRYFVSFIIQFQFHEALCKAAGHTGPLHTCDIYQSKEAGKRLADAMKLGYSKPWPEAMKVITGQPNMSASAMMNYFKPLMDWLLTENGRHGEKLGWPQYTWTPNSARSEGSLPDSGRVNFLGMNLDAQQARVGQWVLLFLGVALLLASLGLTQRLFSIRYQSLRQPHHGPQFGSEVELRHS
# Experiments:
# ACE = details: peptides <3 kDa from fermented goat milk; cited from earlier work
# Text: Among them, VLPVPQKAV ...
# [1] = target: T1, Angiotensin Converting Enzyme from rabbit lung; test: Inhibitory kinetics study (Lineweaver-Burk plot); type: biochemical; details: different HHL and peptide concentrations
# Experimental: Briefly, the enzyme activities were measured with different concentrations of the substrate (HHL) and the ACE inhibitory pattern in the presence of the inhibitor was determined with a Lineweaver–Burk plot.
# A7r5 cells [2] = test: Transwell cell migration assay of Ang II-stimulated VSMCs; type: cell-based, rat; details: 48 h, Ang II in lower chamber, crystal violet, absorbance 570 nm
# Experimental: A7r5 cells were collected and suspended in DMEM (1% FBS), and then the density was adjusted to 2 × 10^5 cells ml^−1. In each group, cell suspensions with or without FPQYLQYPY were cultured in the upper chamber of a Transwell (8.0 μm, Corning, NY, USA) ([26]), and at the same time, the lower chamber was filled with or without Ang II for 48 h. […] After rinsing with PBS, a cotton swab was used to remove the upper unmigrated cells. The migratory cells were observed and photographed under an inverted microscope. Last, a 33% acetic acid solution was added to quantify the crystal violet, and the absorbance of samples was measured at a wavelength of 570 nm using a microplate reader.
# [3] = target: T1, Angiotensin Converting Enzyme from rabbit lung; test: ACE inhibitory activity after in vitro gastrointestinal digest; type: biochemical
# Experimental: (§1) ACE inhibitory activity was measured using an RP-HPLC method with Hippuryl-His-Leu (HHL) as a substrate, which generated hippuric acid (HA) under enzymatic hydrolysis ([19]). The sample was dissolved in a borax-boric acid buffer containing 0.15 M NaCl (pH = 8.3). Firstly, add 10 μL ACE (0.2 U) to the sample tube and blank tube, respectively. At the same time, add 10 μL of sample to the sample tube, and add 10 μL of buffer and 80 μL of 1 M HCl to the blank tube, then pre-incubate at 37°C for 5 min. The reaction was initiated by adding 30 μL HHL (6.5 mM) and incubated for 60 min at the same temperature until 80 μL 1 M HCl was added to terminate the reaction.
# In vitro digestion of the potent purified ACE inhibitory peptide was carried out according to the reported method, with some adjustments ([22], [23]). Peptide (0.4 mL, 1.5 mg mL^−1) was incubated with 2% (w/w) α-amylase, pepsin, or trypsin at 37°C.
# In successive digestion tests, the peptide was first dissolved in buffer solution (pH 6.8) to 2 mg mL^−1 and incubated with α-amylase for 5 min. Then the pH was decreased to pH 2 with the addition of 1 M HCl. Subsequently, the gastric digestion was initiated by adding pepsin at an enzyme-substrate ratio of 2:100 (w/w). The reaction was stopped after 2 h by raising the pH to 8.0 with 1 M NaOH, and trypsin was added to the reactor to continue gastrointestinal digestion for 4 h. Last, the reaction mixture was heated for 15 min in boiling water to inactivate the enzyme.
# [4] = target: T1, Angiotensin Converting Enzyme from rabbit lung; test: ACE-inhibitory activity assay (RP-HPLC, HHL substrate); type: biochemical; details: HHL 6.5 mM, ACE 0.2 U, 37°C, 60 min, pH 8.3; HA at 228 nm by RP-HPLC; mean ± SD; sample concentration not given
# Experimental: as §1
# ACE inhibitory activity (%) was confirmed by monitoring the formation of HA at 228 nm as detected by RP-HPLC on a C18 column (250 × 4.6 mm, 5 μm, Ecosil). The mobile phase was 25% acetonitrile and 75% water with 0.01% trifluoroacetic acid with a flow rate of 1 mL/min. The inhibition activity was calculated using the following equation:
# Inhibition activity(%)=A-B-A0/A-A0×100%
# Where, A = the HA peak area of the control; B = the HA peak area of the sample; A0 = the HA peak area of control with HCL before pre-incubated.
# The inhibitory activity of the hydrolysates or collected fractions was expressed as percentage of ACE inhibition at a given protein concentration ([20]).
# A7r5 cells [5] = details: co-treatment 10, 50, 100 μg mL^−1 with Ang II 0.1 μM, 24 h, CCK-8
# A7r5 cells [6] = test: Wound healing assay of Ang II-stimulated VSMCs; type: cell-based, rat; details: 100 μg mL^−1, Ang II 1 μM, 24 h, ImageJ
# Experimental: Migration of A7r5 cells was evaluated using the wound healing assay ([25]). Three lines were drawn horizontally on the back of each hole on the 6-well plate with a marker. Cells in logarithmic growth phase were evenly seeded into 6-well plates with 2 × 10^5 cells per well, and grown in complete medium until the cells covered the bottom of the plate, then the medium was replaced by quiescing medium for overnight.
# Afterwards, a sterile 200 μL spear head was used to quickly delimit at an average equal distance in the vertical direction according to the marking line, and washed with PBS to remove the floating cells. […] The migration distance was analyzed by ImageJ software.
# A7r5 cells [7] = test: Cell cytotoxicity test (CCK-8); type: cell-based, rat; details: 1–200 μg mL^−1, 24 h, CCK-8, P > 0.05
# Experimental: The cytotoxic effects of FPQYLQYPY in cell culture were evaluated using the Cell Counting Kit-8. First, A7r5 cells were seeded at 1 × 10^4 cells per well into 96-well plates (Costar, Corning, NY, USA) and cultured in a 5% CO2 incubator at 37°C for 24 h. Then, the medium of each well was replaced by 100 μL of fresh medium with different concentrations of FPQYLQYPY (0, 1, 5, 10, 50, 100, or 200 μg mL^−1). After further incubation for 24 h, 10 μL CCK-8 solution was added to each well. Then, the plate was incubated for another 2 h.
# A7r5 cells [8] = test: Real time quantitative RT-PCR of differentially expressed genes; type: cell-based, rat; details: FPQYLQYPY-treated group vs Ang II-treated group
# Experimental: Total RNA was extracted from A7r5 cells using TRIzol reagent, according to the manufacturer's specifications. The information of primer sequences is shown in Supplementary Table 1. RT reactions were performed in a GeneAmp® PCR System 9700 (Applied Biosystems, USA). Then, Real-time PCR was performed using the LightCycler® 480 II Real-time PCR Instrument (Roche, Swiss). The relative expression level was calculated using the 2^−ΔΔCt.
# [9] = target: T2, Angiotensin Converting Enzyme from rabbit lung (rabbit)
# [10] = target: T2, Angiotensin Converting Enzyme from rabbit lung (rabbit); remark: listed apart in the source
# [11] = before digestion (inactivated enzyme), mean ± SD
molecule,measurement,setting,value
VLPVPQKVVPQ,ACE-inhibitory activity,ACE,good ACE-inhibitory activity
"FPQYLQYPY [FPQYLQYPY, also synthesized]",Inhibition pattern against ACE,[1],non-competitive
same,Cell migration in Transwell experiment,A7r5 cells [2],the decrease in the level of cell migration was noteworthy
same,"ACE inhibitory (%), oral digestion (α-Amylase), Digested","[3]; 2% (w/w) α-amylase, pH 6.8, 5 min, 37°C, mean ± SD",57.95 ± 0.22%
same,"ACE inhibitory (%), gastric digestion (Pepsin), Original",[3]; [11],54.12 ± 1.56%
same,"ACE inhibitory (%), intestinal digestion (Trypsin), Original",[3]; [11],49.86 ± 1.68%
same,"ACE inhibitory (%), oral digestion (α-Amylase), Original",[3]; [11],53.47 ± 7.32%
same,"ACE inhibitory (%), gastric digestion (Pepsin), Digested","[3]; pepsin 2:100 (w/w), pH 2, 2 h, 37°C, mean ± SD",56.41 ± 1.91%
same,"ACE inhibitory (%), intestinal digestion (Trypsin), Digested","[3]; trypsin 2% (w/w), pH 8.0, 4 h, 37°C, mean ± SD",45.76 ± 0.42%
same,Change of ACE inhibitory activity after incubation with the digestive enzymes,"[3]; α-amylase, pepsin, trypsin, 37°C, read-out ACE inhibition",no significant difference
same,ACE inhibition rate,[4],71.19 ± 0.71%
same,Proliferation of Ang II-stimulated VSMCs,A7r5 cells [5],significantly decreased the percentage of proliferating cells
same,Distance of the wound healing area (migration),A7r5 cells [6],restore the distance of the wound healing area to the level of the control group
same,Cytotoxic effect on A7r5 cells,A7r5 cells [7],no obvious cytotoxic effect
same,Cox5b mRNA expression,A7r5 cells [8],downregulated
same,Efna4 mRNA expression,A7r5 cells [8],downregulated
same,Igf1r mRNA expression,A7r5 cells [8],downregulated
same,Itga3 mRNA expression,A7r5 cells [8],downregulated
same,Myl4 mRNA expression,A7r5 cells [8],upregulated
same,Plcb3 mRNA expression,A7r5 cells [8],downregulated
same,Shc4 mRNA expression,A7r5 cells [8],upregulated
same,Taok3 mRNA expression,A7r5 cells [8],downregulated
same,Tgfb1 mRNA expression,A7r5 cells [8],upregulated
VLPVPQKAVPQ,ACE-inhibitory activity,ACE,good ACE-inhibitory activity
FPQYLQYPY [ACE-inhibitory peptide Phe-Pro-Gln-Tyr-Leu-Gln-Tyr-Pro-Tyr (…)],"ACE inhibitory (%), undigested peptide ('Original') of the gastric digestion step (pepsin)",[9],54.1%
same,"ACE inhibitory (%), undigested peptide ('Original') of the intestinal digestion step (trypsin)",[9],49.9%
same,"ACE inhibitory (%), undigested peptide ('Original') of the oral digestion step (α-amylase)",[9],53.5%
same,"ACE-inhibitory ability (%) of the purified fraction F3 (HHL substrate, hippuric acid by RP-HPLC; concentration not given)",[10],71.2%
